Data reported in patent publication US10604489B2, “Compounds for the treatment of pain” (priority 2018, dated 2020).
Structures can show the parent of a compound that is named as a salt.

Tests used:
[1] = target: μ-receptor (Homo sapiens (Human), UniProt P35372); experiment: Receptor binding, competitive displacement of [3H]DAMGO; conditions: 0.25 nM [3H]DAMGO, CHO cell membrane protein, 60 min at 25° C.
Procedure: The Ki (binding affinity) for μ-receptor was determined with a previously described method using a competitive displacement assay (Neumeyer et al., J. Med. Chem., v. 46, p. 5162-5170, 2003). Membrane protein from CHO (Chinese Hamster Ovarian) cells that stably expressed one type of the cloned human opioid receptor were incubated with 12 different concentrations of the compound in the presence of 0.25 nM [3H]DAMGO, 0.2 nM [3H]naltrindole or 1 nM [3H]U69,593 in a final volume of 1 mL of 50 mM Tris-HCl, pH 7.5 at 25° C. Incubation times of 60 min were used for [3H]DAMGO and [3H]U69,593. Because of a slower association of [3H]naltrindole with the receptor, a 3 h incubation was used with this radioligand. Samples incubated with [3H]naltrindole also contained 10 mM MgCl2 and 0.5 mM phenylmethylsulfonyl fluoride. Nonspecific binding was measured by inclusion of 10 μM naloxone. The binding was terminated by filtering the samples through Schleicher & Schuell No. 32 glass fiber filters using a Brandel 48-well cell harvester. The filters were subsequently washed three times with 3 mL of cold 50 mM Tris-HCl, pH 7.5, and were counted in 2 mL Ecoscint A scintillation fluid. For [3H]naltrindole and [3H]U69,593 binding, the filters were soaked in 0.1% polyethylenimine for at least 60 min before use. IC50 values will be calculated by least squares fit to a logarithm-probit analysis. Ki values of unlabelled compounds were calculated from the equation Ki=(IC50)/1+S where S=(concentration of radioligand)/(Kd of radioligand) (Cheng and Prusoff, Biochemical Pharmacology, v. 22, p. 3099-3108, 1973).

[2] = target: human μ opioid receptor (Homo sapiens (Human), UniProt P35372); experiment: Functional activity ([35S]GTPγS binding); assay type: biochemical; conditions: [35S]GTPγS 0.080 nM, CHO cell membranes, 60 min at 30° C., filtration
Procedure: The [^35S]GTPγS assay measures the functional properties of a compound by quantifying the level of G-protein activation following agonist binding in studies using stably transfected cells, and is considered to be a measure of the efficacy of a compound. Membranes from CHO (Chinese Hamster Ovary) cells that stably expressed one type of the cloned human opioid receptor human were used in the experiments. In a final volume of 0.5 mL, 12 different concentrations of each test compound were incubated with 7.5 μg of CHO cell membranes that stably expressed the human p opioid receptor. The assay buffer consisted of 50 mM Tris-HCl, pH 7.4, 3 mM MgCl2, 0.2 mM EGTA, 3 μM GDP, and 100 mM NaCl. The final concentration of [35S]GTPγS was 0.080 nM. Nonspecific binding was measured by inclusion of 10 μM GTPγS. Binding was initiated by the addition of the membranes. After an incubation of 60 min at 30° C., the samples were filtered through Schleicher & Schuell No. 32 glass fiber filters. The filters were washed three times with cold 50 mM Tris-HCl, pH 7.5, and were counted in 2 mL of Ecoscint scintillation fluid.

| Compound | Ki [1] [nM] | EC50 [2] [nM] |
| --- | --- | --- |
| COC1(c2cccc(C(N)=O)c2)C2CCCC1CN(CC1CCS(=O)(=O)CC1)C2 [Compound 1, 3-((1R,5S,9r)-3-((1,1-dioxidotetrahydro-2H-thiopyran-4-yl)methyl)-9-methoxy-3-azabicyclo[3.3.1]nonan-9-yl)benzamide hydrochloride] | 1 to 5 | > 75 |
| COC1(c2ccnc(C(N)=O)c2)C2CCCC1CN([C@H]1C[C@@H](F)C1)C2 (stereo partly drawn) [Compound 2, 4-((1R,5S,9R)-3-((1s,3S)-3-fluorocyclobutyl)-9-methoxy-3-azabicyclo[3.3.1]nonan-9-yl)picolinamide hydrochloride] | < 1 | 10 to 75 |
| COC1(c2cccc(C(N)=O)c2)C2CCCC1CN(C1CCC3(CC1)COC3)C2 [Compound 3, 3-((1R,5S,9r)-9-methoxy-3-(2-oxaspiro[3.5]nonan-7-yl)-3-azabicyclo[3.3.1]nonan-9-yl)benzamide (S)-2-hydroxysuccinate] | < 1 | < 10 |
| COC1(c2ccnc(C(N)=O)c2)C2CCCC1CN(C1(C)CC1)C2 [Compound 4, 4-((1R,5S,9r)-9-methoxy-3-(1-methylcyclopropyl)-3-azabicyclo[3.3.1]nonan-9-yl)picolinamide hydrochloride] | > 5 | > 75 |
| COC1(c2cccc(C(N)=O)c2)C2CCCC1CN(C1CC3(CCOCC3)C1)C2 [Compound 6, 3-((1R,5S,9r)-9-methoxy-3-(7-oxaspiro[3.5]nonan-2-yl)-3-azabicyclo[3.3.1]nonan-9-yl)benzamide hydrochloride] | < 1 | < 10 |
| COC1(c2ccnc(C(N)=O)c2)C2CCCC1CN(C1CCC(F)(F)CC1)C2 [Compound 7, 4-((1R,5S,9r)-3-(4,4-difluorocyclohexyl)-9-methoxy-3-azabicyclo[3.3.1]nonan-9-yl)picolinamide hydrochloride] | 1 to 5 | > 75 |
| COC1(c2cccc(C(N)=O)c2)C2CCCC1CN(C1CCC(F)(F)CC1)C2 [Compound 9, 3-((1R,5S,9r)-3-(4,4-difluorocyclohexyl)-9-methoxy-3-azabicyclo[3.3.1]nonan-9-yl)benzamide hydrochloride] | < 1 | 10 to 75 |
| COC1(c2ccnc(C(N)=O)c2)C2CCCC1CN(C1CC3CCC(C1)O3)C2 [Compound 10, 4-((1R,5S,9R)-3-((1R,3r,5S)-8-oxabicyclo[3.2.1]octan-3-yl)-9-methoxy-3-azabicyclo[3.3.1]nonan-9-yl)picolinamide hydrochloride] | > 5 | > 75 |
| COC1(c2cccc(C(N)=O)c2)C2CCCC1CN([C@H]1C[C@H]3C[C@H]3C1)C2 (stereo partly drawn) [Compound 11, 3-((1R,5S,9r)-3-(bicyclo[3.1.0]hexan-3-yl)-9-methoxy-3-azabicyclo[3.3.1]nonan-9-yl)benzamide hydrochloride] | < 1 | < 10 |
| COC1(c2ccnc(C(N)=O)c2)C2CCCC1CN(C1CC3(CCOCC3)C1)C2 [Compound 13, 4-((1R,5S,9r)-9-methoxy-3-(7-oxaspiro[3.5]nonan-2-yl)-3-azabicyclo[3.3.1]nonan-9-yl)picolinamide hydrochloride] | < 1 | < 10 |
| COC1(c2cccc(C(N)=O)c2)C2CCCC1CN([C@H]1C[C@@H]3[C@H](C1)C3(F)F)C2 (stereo partly drawn) [Compound 17, 3-((1R,5S,9R)-3-((1R,3r,5S)-6,6-difluorobicyclo[3.1.0]hexan-3-yl)-9-methoxy-3-azabicyclo[3.3.1]nonan-9-yl)benzamide hydrochloride] | < 1 | < 10 |
| COC1(c2ccnc(C(N)=O)c2)C2CCCC1CN([C@H]1C[C@@H]3[C@H](C1)C3(F)F)C2 (stereo partly drawn) [Compound 18, 4-((1R,5S,9R)-3-((1R,3r,5S)-6,6-difluorobicyclo[3.1.0]hexan-3-yl)-9-methoxy-3-azabicyclo[3.3.1]nonan-9-yl)picolinamide hydrochloride] | < 1 | < 10 |
| COC1(c2cccc(C(N)=O)c2)C2CCCC1CN(Cc1ccccc1)C2 [Compound 21, 3-((1R,5S,9r)-3-benzyl-9-methoxy-3-azabicyclo[3.3.1]nonan-9-yl)benzamide hydrochloride] | < 1 | < 10 |
| COC1(c2cccc(C(N)=O)c2)C2CCCC1CN(CCc1ccccc1)C2 [Compound 24, 3-((1R,5S,9r)-9-methoxy-3-phenethyl-3-azabicyclo[3.3.1]nonan-9-yl)benzamide hydrochloride] | < 1 | < 10 |
| COC1(c2cccc(C(N)=O)c2)C2CCCC1CN(CC1CCC1)C2 [Compound 26, 3-((1R,5S,9r)-3-(cyclobutylmethyl)-9-methoxy-3-azabicyclo[3.3.1]nonan-9-yl)benzamide hydrochloride] | < 1 | < 10 |
| CCCCN1CC2CCCC(C1)C2(OC)c1cccc(C(N)=O)c1 [Compound 29, 3-((1R,5S,9r)-3-butyl-9-methoxy-3-azabicyclo[3.3.1]nonan-9-yl)benzamide hydrochloride] | < 1 | < 10 |
| CCOC1(c2cccc(C(N)=O)c2)C2CCCC1CN(CC1CC1)C2 [Compound 30, 3-((1R,5S,9r)-3-(cyclopropylmethyl)-9-ethoxy-3-azabicyclo[3.3.1]nonan-9-yl)benzamide hydrochloride] | < 1 | < 10 |
| COC1(c2cccc(C(N)=O)c2)C2CCCC1CN(CCC(F)(F)F)C2 [Compound 34, 3-((1R,5S,9r)-9-methoxy-3-(3,3,3-trifluoropropyl)-3-azabicyclo[3.3.1]nonan-9-yl)benzamide hydrochloride] | < 1 | < 10 |
| COC1(c2cccc(C(N)=O)c2)C2CCCC1CNC2 [Compound 35, 3-((1R,5S,9r)-9-methoxy-3-azabicyclo[3.3.1]nonan-9-yl)benzamide hydrochloride] | < 1 | 10 to 75 |
| COC1(c2ccc(C(N)=O)s2)C2CCCC1CN(CC1CC1)C2 [Compound 36, 5-((1R,5S,9r)-3-(cyclopropylmethyl)-9-methoxy-3-azabicyclo[3.3.1]nonan-9-yl)thiophene-2-carboxamide hydrochloride] | < 1 | 10 to 75 |
| CN1CC2CCCC(C1)C2(OCC(F)(F)F)c1cccc(C(N)=O)c1 [Compound 37, 3-((1R,5S,9r)-3-methyl-9-(2,2,2-trifluoroethoxy)-3-azabicyclo[3.3.1]nonan-9-yl)benzamide hydrochloride] | 1 to 5 | 10 to 75 |
| COC1(c2cccc(C(N)=O)c2)C2CCCC1CN(C1CC1)C2 [Compound 38, 3-((1R,5S,9r)-3-cyclopropyl-9-methoxy-3-azabicyclo[3.3.1]nonan-9-yl)benzamide hydrochloride] | < 1 | 10 to 75 |
| COC1(c2cccc(C(N)=O)c2F)C2CCCC1CN(C)C2 [Compound 39, 2-fluoro-3-((1R,5S,9r)-9-methoxy-3-methyl-3-azabicyclo[3.3.1]nonan-9-yl)benzamide hydrochloride] | 1 to 5 | 10 to 75 |
| COC1(c2cccc(C(N)=O)c2)C2CCCC1CN(CC1(F)CC1)C2 [Compound 40, 3-((1R,5S,9r)-3-((1-fluorocyclopropyl)methyl)-9-methoxy-3-azabicyclo[3.3.1]nonan-9-yl)benzamide hydrochloride] | < 1 | 10 to 75 |
| COC1(c2cccc(C(N)=O)c2)C2CCCC1CN(C1CCC1)C2 [Compound 42, 3-((1R,5S,9r)-3-cyclobutyl-9-methoxy-3-azabicyclo[3.3.1]nonan-9-yl)benzamide hydrochloride] | < 1 | < 10 |
| COC1(c2cccc(C(N)=O)c2)C2CCCC1CN(C1CCOCC1)C2 [Compound 45, 3-((1R,5S,9r)-9-methoxy-3-(tetrahydro-2H-pyran-4-yl)-3-azabicyclo[3.3.1]nonan-9-yl)benzamide hydrochloride] | 1 to 5 | 10 to 75 |
| CCCN1CC2CCCC(C1)C2(OC)c1cccc(C(N)=O)c1 [Compound 47, 3-((1R,5S,9r)-9-methoxy-3-propyl-3-azabicyclo[3.3.1]nonan-9-yl)benzamide hydrochloride] | < 1 | < 10 |
